{"source": "patent US20210108191A1", "about": "“Methods of Production of Biologically Active Lasso Peptides” (The Board of Trustees of the University of Illinois, priority 2017, published 2021)", "system": "several pathogenic bacteria", "test": "activity against pathogenic bacteria", "format": "cell-based", "text": "RODEO can be used to assist in identifying lasso peptide gene clusters (FIG. 2). […] Several new lasso peptides have been characterized. (FIG. 3B-C). […] RODEO provides a roadmap for the discovery of new RiPPs and lasso peptide biosynthetic enzymology.", "note": "Bridges are numbered along the chain shown (N, C = ends). Where no end group is shown, it is not given here.", "data": [{"substance": "LP2006: rare disulfide-containing, class IV lasso peptide (SEQ ID NO:6) from Nocardiopsis alba (GRPNWGFENDWSCVRVC; disulfide 13-17 (inferred); also: lasso topology, ring places not given here)", "values": [{"measurement": "activity against pathogenic bacteria", "result": "active against several pathogenic bacteria"}]}]}
